Assays:
Puccinia recondita = experiment: Efficacy of seed treatment on wheat brown rust; type: in vivo; conditions: wheat seed treatment 20 g ai/100 kg seeds, 12 days after inoculation
Method: A pot experiment was performed to evaluate the efficacy of seed treatment in controlling wheat leaf rust. Compound (1-1a) and Compound (1-2a), each of which was dissolved in DMSO to make up such a concentration that the seeds would be treated in treatment amount of 20 g ai/100 kg seeds, were each applied to wheat seeds in a vial, and thereafter 8 wheat seeds were sowed on an 80-cm^2 pot. The pot was kept in a greenhouse with water supplied to its bottom. 21 days after the sowing, the wheat seeds were inoculated with Puccinia recondita, and kept in a wet box for 2 days. After that, the pot was again kept in the greenhouse with water supplied to its bottom. 12 days after the inoculation, the percentage of affected area was found, and the protective value was calculated by the following equation. Protective value (%)=(1−(Percentage of affected area in treated region/Percentage of affected area in untreated region))×100

wheat = experiment: Growth inhibition (adverse effects) of seed treatment on wheat seeds; type: in vivo; conditions: wheat, 20 days after sowing
How it was run: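 Wheat seeds were treated with compound in DMSO at 2 g to 200 g ai/100 kg seeds, sown 8 per pot and kept in a greenhouse with bottom watering. Growth was scored 20 days after sowing as a growth inhibition index, lower meaning less adverse effect.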

Glomerella cingurata = experiment: Test 1 for antifungal effect, plate medium: G.c; type: cell-based; conditions: PDA plate medium
How it was run: (§1)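 Readout: % mycelial growth inhibition, R=100(dc−dt)/dc, from colony diameters on treated (dt) vs compound-free (dc) PDA plates. Compound was added in DMSO to molten PDA (~60° C); 4 mm plugs incubated 1–7 days at optimum growth temperature.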

Phaeosphaeria nodorum = experiment: Test 1 for antifungal effect, plate medium: P.n; type: cell-based; conditions: PDA plate medium
How it was run: as §1

Pyrenophora graminea = experiment: Test 2 for antifungal effect, plate medium: P.g; type: cell-based; conditions: PDA plate medium
How it was run: (§2)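 Compound in DMSO was mixed into PDA medium at about 60° C to make plates at a set concentration. These were inoculated with 4 mm mycelial plugs and grown 1–7 days at each pathogen's optimum temperature. Colony diameter was compared with compound-free plates to give growth inhibition, rated on a 1–5 scale.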

Ustilago nuda = experiment: Test 2 for antifungal effect, plate medium: U.n; type: cell-based; conditions: PDA plate medium
How it was run: as §2

Septoria tritici = experiment: Test 2 for antifungal effect, plate medium: S.t; type: cell-based; conditions: PDA plate medium
How it was run: as §2

Gibberella fujikuroi = experiment: Test 1 for antifungal effect, plate medium: G.f; type: cell-based; conditions: PDA plate medium
How it was run: as §1

Botrytis cinerea = experiment: Test 1 for antifungal effect, plate medium: B.c; type: cell-based; conditions: PDA plate medium
How it was run: as §1

CC1(CCl)CCC(Cc2ccc(F)cc2)C1(O)Cn1cncn1 (single isomer, unassigned) [Compound (1-2a), (1,2-cis, 1,5-cis)-5-(4-fluorobenzyl)-2-chloromethyl-2-methyl-1-(1H-1,2,4-triazole-1-ylmethyl)cyclopentanol]
Protective value (%) (Puccinia recondita): 100%
Growth inhibition index (wheat; treatment amount 2 g ai/100 kg seeds): 0 (50% or more)
Growth inhibition index (wheat; treatment amount 20 g ai/100 kg seeds): 0 (50% or more)
Growth inhibition index (wheat; treatment amount 200 g ai/100 kg seeds): 2 (Less than 40% but 30% or more)
Antifungal index (mycelial growth inhibition rate) (Glomerella cingurata; 0.16 mg/L): 5 (90% or greater)
Antifungal index (mycelial growth inhibition rate) (Glomerella cingurata; 0.31 mg/L): 5 (90% or greater)
Antifungal index (mycelial growth inhibition rate) (Glomerella cingurata; 0.63 mg/L): 5 (90% or greater)
Antifungal index (mycelial growth inhibition rate) (Glomerella cingurata; 1.25 mg/L): 5 (90% or greater)
Antifungal index (mycelial growth inhibition rate) (Glomerella cingurata; 2.50 mg/L): 5 (90% or greater)
Antifungal index (mycelial growth inhibition rate) (Phaeosphaeria nodorum; 0.16 mg/L): 1 (Less than 60%)
Antifungal index (mycelial growth inhibition rate) (Phaeosphaeria nodorum; 0.31 mg/L): 2 (Less than 70% but not less than 60%)
Antifungal index (mycelial growth inhibition rate) (Phaeosphaeria nodorum; 0.63 mg/L): 5 (90% or greater)
Antifungal index (mycelial growth inhibition rate) (Phaeosphaeria nodorum; 1.25 mg/L): 5 (90% or greater)
Antifungal index (mycelial growth inhibition rate) (Phaeosphaeria nodorum; 2.50 mg/L): 5 (90% or greater)
Antifungal index (mycelial growth inhibition rate) (Pyrenophora graminea; 0.04 mg/L): 1 (Less than 60%)
Antifungal index (mycelial growth inhibition rate) (Pyrenophora graminea; 0.08 mg/L): 2 (Less than 70% but not less than 60%)
Antifungal index (mycelial growth inhibition rate) (Pyrenophora graminea; 0.16 mg/L): 4 (Less than 90% but not less than 80%)
Antifungal index (mycelial growth inhibition rate) (Pyrenophora graminea; 0.31 mg/L): 5 (90% or greater)
Antifungal index (mycelial growth inhibition rate) (Pyrenophora graminea; 0.63 mg/L): 5 (90% or greater)
Antifungal index (mycelial growth inhibition rate) (Pyrenophora graminea; 1.25 mg/L): 5 (90% or greater)
Antifungal index (mycelial growth inhibition rate) (Ustilago nuda; 0.04 mg/L): 1 (Less than 60%)
Antifungal index (mycelial growth inhibition rate) (Ustilago nuda; 0.08 mg/L): 1 (Less than 60%)
Antifungal index (mycelial growth inhibition rate) (Ustilago nuda; 0.16 mg/L): 1 (Less than 60%)
Antifungal index (mycelial growth inhibition rate) (Ustilago nuda; 0.31 mg/L): 1 (Less than 60%)
Antifungal index (mycelial growth inhibition rate) (Ustilago nuda; 0.63 mg/L): 1 (Less than 60%)
Antifungal index (mycelial growth inhibition rate) (Ustilago nuda; 1.25 mg/L): 2 (Less than 70% but not less than 60%)
Antifungal index (mycelial growth inhibition rate) (Septoria tritici; 0.04 mg/L): 1 (Less than 60%)
Antifungal index (mycelial growth inhibition rate) (Septoria tritici; 0.08 mg/L): 1 (Less than 60%)
Antifungal index (mycelial growth inhibition rate) (Septoria tritici; 0.16 mg/L): 1 (Less than 60%)
Antifungal index (mycelial growth inhibition rate) (Septoria tritici; 0.31 mg/L): 1 (Less than 60%)
Antifungal index (mycelial growth inhibition rate) (Septoria tritici; 0.63 mg/L): 1 (Less than 60%)
Antifungal index (mycelial growth inhibition rate) (Septoria tritici; 1.25 mg/L): 3 (Less than 80% but not less than 70%)
Antifungal index (mycelial growth inhibition rate) (Gibberella fujikuroi; 0.16 mg/L): 4 (Less than 90% but not less than 80%)
Antifungal index (mycelial growth inhibition rate) (Gibberella fujikuroi; 0.31 mg/L): 5 (90% or greater)
Antifungal index (mycelial growth inhibition rate) (Gibberella fujikuroi; 0.63 mg/L): 5 (90% or greater)
Antifungal index (mycelial growth inhibition rate) (Gibberella fujikuroi; 1.25 mg/L): 5 (90% or greater)
Antifungal index (mycelial growth inhibition rate) (Gibberella fujikuroi; 2.50 mg/L): 5 (90% or greater)
Antifungal index (mycelial growth inhibition rate) (Botrytis cinerea; 0.16 mg/L): 3 (Less than 80% but not less than 70%)
Antifungal index (mycelial growth inhibition rate) (Botrytis cinerea; 0.31 mg/L): 5 (90% or greater)
Antifungal index (mycelial growth inhibition rate) (Botrytis cinerea; 0.63 mg/L): 5 (90% or greater)
Antifungal index (mycelial growth inhibition rate) (Botrytis cinerea; 1.25 mg/L): 5 (90% or greater)
Antifungal index (mycelial growth inhibition rate) (Botrytis cinerea; 2.50 mg/L): 5 (90% or greater)

— patent US9253983B2, “Triazole compound and use thereof” (KUREHA CORPORATION, priority 2011, dated 2016)
